Laboratory results reported in patent US20240300948A1, “Heterocyclic Compounds As Kinase Inhibitors” (Incyte Corporation, priority 2023, published 2024).
pIC50: −log10 of the molar value.

How the values were obtained:
[1] = molecular target: T1, pseudo-kinase domain (JH2, amino-acids 536-812 with 3 surface mutations W659A, W777A, F794H) of human V617F mutant JAK2 (Homo sapiens, UniProt O60674, F794H/V617F/W659A/W777A); assay: JAK2 LanthaScreen JH2-V617F binding assay; conditions: 50 nM tracer, 1 hour at 25° C., read-out: JH2 BIND V617F IC50
T1 construct: pseudo-kinase domain (JH2, amino-acids 536-812 with 3 surface mutations W659A, W777A, F794H); His (C); Avi (biotinylated) (C); purchased BPS Bioscience 79498; host or cells: baculovirus expression system
T1 sequence (O60674 536-812 V617F/W659A/W777A/F794H): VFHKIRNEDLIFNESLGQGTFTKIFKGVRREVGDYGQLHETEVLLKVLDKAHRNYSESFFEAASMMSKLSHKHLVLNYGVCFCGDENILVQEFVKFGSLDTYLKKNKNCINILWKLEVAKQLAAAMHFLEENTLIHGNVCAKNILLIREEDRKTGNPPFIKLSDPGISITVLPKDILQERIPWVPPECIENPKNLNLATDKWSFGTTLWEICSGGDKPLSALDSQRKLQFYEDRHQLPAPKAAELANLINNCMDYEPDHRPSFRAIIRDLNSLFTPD
Summary of the method: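 This is a TR-FRET tracer-displacement format with a 1 h, 25 °C incubation. It combined 0.26 nM baculovirus-expressed biotinylated JH2-V617F, 50 nM fluorescent JAK2-JH2 tracer and 0.25 nM streptavidin-Tb cryptate in 50 mM Tris pH 7.5, 10 mM MgCl2, 5 mM DTT. Background came from 2 mM ATP, and IC50 values were from four-parameter dose-response fits.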

[2] = molecular target: T2, pseudo-kinase domain (JH2, amino-acids 536-812 with 3 surface mutations W659A, W777A, F794H) of human Wild Type JAK2 (Homo sapiens, UniProt O60674, F794H/W659A/W777A); assay: JAK2 LanthaScreen JH2-WT binding assay; conditions: 50 nM tracer, 1 hour at 25° C., read-out: JH2 BIND WT IC50
T2 construct: pseudo-kinase domain (JH2, amino-acids 536-812 with 3 surface mutations W659A, W777A, F794H); His (C); Avi (biotinylated) (C); purchased BPS Bioscience 79463; host or cells: baculovirus expression system
T2 sequence (O60674 536-812 W659A/W777A/F794H): as the sequence (O60674 536-812 V617F/W659A/W777A/F794H) above, with F82V counted along it
Summary of the method: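 Biotinylated C-terminal His-Avi-tagged JH2 (residues 536-812, baculovirus-expressed) at 0.145 nM was incubated with serially diluted compounds, 50 nM fluorescent JAK2-JH2 tracer and 0.25 nM streptavidin-Tb cryptate in pH 7.5 Tris buffer with MgCl2, Brij-35, BSA, EGTA, glycerol and DTT. LanthaScreen TR-FRET was read after 1 hour at 25° C; IC50 came from four-parameter fits.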

[3] = molecular target: T3, catalytic domain (JH1, amino acids 826-1132) of human JAK2 (Homo sapiens, UniProt O60674); assay: JAK2 LanthaScreen JH1 binding assay; conditions: 50 nM tracer, 2 hours at 25° C., read-out: JH1 BIND IC50
T3 construct: catalytic domain (JH1, amino acids 826-1132) of human JAK2; FLAG (N); purchased Carna Biosciences 08-445-20N; host or cells: baculovirus expression system
T3 sequence (O60674 826-1132): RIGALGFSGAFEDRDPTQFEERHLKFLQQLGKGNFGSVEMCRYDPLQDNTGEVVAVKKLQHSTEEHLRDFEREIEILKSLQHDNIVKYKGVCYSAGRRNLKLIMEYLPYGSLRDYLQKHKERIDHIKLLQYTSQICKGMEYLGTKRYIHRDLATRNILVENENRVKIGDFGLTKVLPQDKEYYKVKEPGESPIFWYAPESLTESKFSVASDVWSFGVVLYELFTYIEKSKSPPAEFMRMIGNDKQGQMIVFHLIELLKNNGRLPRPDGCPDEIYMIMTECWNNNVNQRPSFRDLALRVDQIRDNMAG
Summary of the method: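 Binding of compounds to biotinylated, FLAG-tagged human JAK2 JH1 (aa 826-1132; 1.5 nM) was measured by LanthaScreen TR-FRET with 50 nM fluorescent tracer and 0.5 nM streptavidin-Tb, in pH 7.5 Tris buffer. Non-specific binding was defined with 2 mM ATP. After 2 h at 25 °C, IC50 was fitted from four-parameter dose-response curves.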

Row | SMILES | pIC50 [1] | pIC50 [2] | pIC50 [3]
1 | COC(=O)N[C@@H]1CC[C@@H](n2c(=O)nc(OC)c3cnc4[nH]c(-c5cnn(C)c5)c(-c5ccc6c(cnn6C(C)C)c5)c4c32)C1 [Example 40, Methyl ((1R,3R)-3-(9-(1-isopropyl-1H-indazol-5-yl)-4-methoxy-8-(1-methyl-1H-pyrazol-4-yl)-2-oxo-2,7-dihydro-1H-pyrrolo[3′,2′:5,6]pyrido[4,3-d]pyrimidin-1-yl)cyclopentyl)carbamate] | 6.30 to 7.00 | 7.00 to 8.00 | < 6.00
2 | COC(=O)N[C@@H]1CC[C@@H](N2C(=O)NCc3cnc4[nH]c(-c5cnn(C)c5)c(-c5cccc(F)c5)c4c32)C1 [Example 31, Methyl ((1R,3R)-3-(9-(3-fluorophenyl)-8-(1-methyl-1H-pyrazol-4-yl)-2-oxo-2,3,4,7-tetrahydro-1H-pyrrolo[3′,2′:5,6]pyrido[4,3-d]pyrimidin-1-yl)cyclopentyl) carbamate] | 6.30 to 7.00 | 7.00 to 8.00 | < 6.00
3 | CC(C)n1ncc2cc(-c3c(-c4cnn(C)c4)[nH]c4ncc5c(c34)N(C3CCC4(CC3)CN(C(=O)NCC(F)F)C4)C(=O)NC5)ccc21 [Example 19, N-(2,2-Difluoroethyl)-7-(9-(1-isopropyl-1H-indazol-5-yl)-8-(1-methyl-1H-pyrazol-4-yl)-2-oxo-2,3,4,7-tetrahydro-1H-pyrrolo[3′,2′:5,6]pyrido[4,3-d]pyrimidin-1-yl)-2-azaspiro[3.5] nonane-2-carboxamide] | 7.00 to 8.00 | 7.00 to 8.00 | 6.30 to 7.00
4 | CC(C)n1ncc2cc(-c3c(-c4cnn(C)c4)[nH]c4ncc5c(c34)N([C@H]3C[C@@H](NS(C)(=O)=O)C3)C(=O)NC5)ccc21 [Example 6, N-((1s,3s)-3-(9-(1-Isopropyl-1H-indazol-5-yl)-8-(1-methyl-1H-pyrazol-4-yl)-2-oxo-2,3,4,7-tetrahydro-1H-pyrrolo[3′,2′:5,6]pyrido[4,3-d]pyrimidin-1-yl)cyclobutyl) methanesulfonamide] | 7.00 to 8.00 | ≥ 8.00 | 6.30 to 7.00
5 | CC(=O)N1CCC(N2C(=O)NCc3cnc4[nH]c(-c5cnn(C)c5)c(-c5ccc6c(cnn6C(C)C)c5)c4c32)CC1 [Example 15, 1-(1-Acetylpiperidin-4-yl)-9-(1-isopropyl-1H-indazol-5-yl)-8-(1-methyl-1H-pyrazol-4-yl)-1,3,4,7-tetrahydro-2H-pyrrolo [3′,2′:5,6]pyrido[4,3-d]pyrimidin-2-one] | 7.00 to 8.00 | 7.00 to 8.00 | < 6.00
